According to article PMC10434272, “Overexpression of Eimeria tenella Rhoptry Kinase 2 Induces Early Production of Schizonts” (Microbiology Spectrum, 2023):

How the values were obtained:
[1] = molecular target: T1, EtROP2 (rhoptry kinase 2) (Eimeria tenella, UniProt U6KH66); set-up: gene ETH_00027700
[2] = molecular target: T1, EtROP2 (rhoptry kinase 2); experiment: ADP-Glo kinase assay with p120-TLTR peptide substrate, […] ATP; type: biochemical; set-up: gene ETH_00027700; EtROP2-GST, wild type, full-length, from Met1 to Glu671, produced in Sf9 cells

T1 sequence (U6KH66 entry or part of it): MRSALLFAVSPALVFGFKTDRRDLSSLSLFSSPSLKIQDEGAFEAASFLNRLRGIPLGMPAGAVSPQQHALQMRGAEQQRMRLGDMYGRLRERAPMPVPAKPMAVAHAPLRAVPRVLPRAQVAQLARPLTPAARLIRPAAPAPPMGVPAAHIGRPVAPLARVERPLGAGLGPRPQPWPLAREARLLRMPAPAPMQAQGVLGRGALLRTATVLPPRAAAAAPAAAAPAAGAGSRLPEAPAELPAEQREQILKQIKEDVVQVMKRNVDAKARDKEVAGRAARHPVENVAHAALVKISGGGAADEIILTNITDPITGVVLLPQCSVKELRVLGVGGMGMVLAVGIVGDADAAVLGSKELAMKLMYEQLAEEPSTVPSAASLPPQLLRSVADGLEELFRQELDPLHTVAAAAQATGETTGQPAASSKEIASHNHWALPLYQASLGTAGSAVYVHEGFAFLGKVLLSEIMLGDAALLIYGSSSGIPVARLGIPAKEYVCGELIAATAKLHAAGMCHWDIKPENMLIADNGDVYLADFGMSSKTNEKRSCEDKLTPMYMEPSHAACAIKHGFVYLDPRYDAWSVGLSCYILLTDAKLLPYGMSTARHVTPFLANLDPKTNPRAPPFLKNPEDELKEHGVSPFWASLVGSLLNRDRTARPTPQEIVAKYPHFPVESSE

Q: For `Nc1ncnc2c1ncn2[C@@H]1O[C@H](COP(=O)(O)OP(=O)(O)OP(=O)(O)O)[C@@H](O)[C@H]1O` [ATP], which Km [1] is on record?
A: ~7.52 µM

Q: For `CN[C@@H]1C[C@H]2O[C@@](C)([C@@H]1OC)n1c3ccccc3c3c4c(c5c6ccccc6n2c5c31)C(=O)NC4` [STS, staurosporine], which IC50 [2] is on record?
A: 291 nM
